Test results published in PubChem BioAssay (NCI).
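Where inhibition never reached the appropriate level, the endpoint shown equals the highest concentration tested. Otherwise, values were interpolated linearly from a five-concentration, 48-hour dose response in 96-well plates. At the GI50, growth is halved. TGI denotes the concentration required for complete inhibition of growth.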

Key:
Assay in all cases: growth of human tumour cells (NCI), 48 h
OVCAR-3 ovarian = tested on: OVCAR-3 ovarian
OVCAR-4 ovarian = tested on: OVCAR-4 ovarian
HS 578T breast = tested on: HS 578T breast
M14 melanoma = tested on: M14 melanoma
HOP-92 NSCLC = tested on: HOP-92 NSCLC
MDA-MB-231 breast = tested on: MDA-MB-231 breast
SK-MEL-28 melanoma = tested on: SK-MEL-28 melanoma
SK-MEL-2 melanoma = tested on: SK-MEL-2 melanoma
SW-620 colon = tested on: SW-620 colon
SF-268 CNS = tested on: SF-268 CNS

Cc1ccc(Cl)cc1Nc1nc(C(F)(F)F)ccc1C(=O)N1CCN(c2ccc(F)cc2)CC1
GI50 (OVCAR-3 ovarian): 10.7 µM | TGI (OVCAR-3 ovarian): 24 µM | GI50 (OVCAR-4 ovarian): 10.8 µM | TGI (OVCAR-4 ovarian): 27.9 µM | GI50 (HS 578T breast): 4.31 µM | TGI (HS 578T breast): 22.3 µM | GI50 (M14 melanoma): 15 µM | TGI (M14 melanoma): 31.3 µM | GI50 (HOP-92 NSCLC): 12.5 µM | TGI (HOP-92 NSCLC): 30.4 µM | GI50 (MDA-MB-231 breast): 10.3 µM | TGI (MDA-MB-231 breast): 24.4 µM | GI50 (SK-MEL-28 melanoma): 15.6 µM | TGI (SK-MEL-28 melanoma): 29.3 µM | GI50 (SK-MEL-2 melanoma): 16.1 µM | TGI (SK-MEL-2 melanoma): 37.1 µM | GI50 (SW-620 colon): 12.2 µM | TGI (SW-620 colon): 24.6 µM | GI50 (SF-268 CNS): 15.8 µM | TGI (SF-268 CNS): 36.5 µM

O=c1c2ccccc2[se]n1-c1cccnc1
TGI (OVCAR-3 ovarian): > 100 µM | TGI (OVCAR-4 ovarian): > 100 µM | TGI (HS 578T breast): 42.1 µM | TGI (M14 melanoma): 83.7 µM | TGI (HOP-92 NSCLC): 36.1 µM | TGI (MDA-MB-231 breast): 66.6 µM | TGI (SK-MEL-28 melanoma): 81 µM | TGI (SK-MEL-2 melanoma): 47.9 µM | TGI (SW-620 colon): 83.3 µM | TGI (SF-268 CNS): 70.6 µM

COC(=O)/C=C/c1cc(O)c2oc(-c3ccc(O)c(O)c3)c(C(=O)OC)c2c1
GI50 (OVCAR-3 ovarian): 0.147 µM | TGI (OVCAR-3 ovarian): 3.43 µM | GI50 (OVCAR-4 ovarian): 0.901 µM | TGI (OVCAR-4 ovarian): 12 µM | GI50 (HS 578T breast): 0.405 µM | TGI (HS 578T breast): 9.18 µM | GI50 (M14 melanoma): 0.0698 µM | TGI (M14 melanoma): 9.39 µM | GI50 (HOP-92 NSCLC): 1.57 µM | TGI (HOP-92 NSCLC): 11.3 µM | GI50 (MDA-MB-231 breast): 0.927 µM | TGI (MDA-MB-231 breast): 15.8 µM | GI50 (SK-MEL-28 melanoma): 1.92 µM | TGI (SK-MEL-28 melanoma): 11.1 µM | GI50 (SK-MEL-2 melanoma): 0.74 µM | TGI (SK-MEL-2 melanoma): 13.2 µM | GI50 (SW-620 colon): 0.124 µM | TGI (SW-620 colon): 14 µM | GI50 (SF-268 CNS): 1.52 µM | TGI (SF-268 CNS): 12.5 µM

Cc1nnc(S(=O)(=O)c2ccc(N=Nc3c(N)nc(N)nc3N)cc2)s1
TGI (OVCAR-3 ovarian): > 100 µM | TGI (OVCAR-4 ovarian): > 100 µM | TGI (HS 578T breast): > 100 µM | TGI (M14 melanoma): > 100 µM | TGI (HOP-92 NSCLC): > 100 µM | TGI (MDA-MB-231 breast): > 100 µM | TGI (SK-MEL-28 melanoma): > 100 µM | TGI (SK-MEL-2 melanoma): > 100 µM | TGI (SW-620 colon): > 100 µM | TGI (SF-268 CNS): > 100 µM

Cc1ccc(C(SCC(N)C(=O)O)(c2ccccc2)c2ccc(C)cc2)cc1 (stereo not given)
GI50 (OVCAR-3 ovarian): 0.192 µM | TGI (OVCAR-3 ovarian): 2.64 µM | GI50 (OVCAR-4 ovarian): 13.4 µM | TGI (OVCAR-4 ovarian): 72.7 µM | GI50 (HS 578T breast): 0.0485 µM | TGI (HS 578T breast): 2.17 µM | GI50 (M14 melanoma): 0.0316 µM | TGI (M14 melanoma): 0.147 µM | GI50 (HOP-92 NSCLC): 1.19 µM | TGI (HOP-92 NSCLC): 22.4 µM | GI50 (MDA-MB-231 breast): 0.468 µM | TGI (MDA-MB-231 breast): 16.1 µM | GI50 (SK-MEL-28 melanoma): 2.09 µM | TGI (SK-MEL-28 melanoma): 23.7 µM | GI50 (SK-MEL-2 melanoma): 0.219 µM | TGI (SK-MEL-2 melanoma): 3.88 µM | GI50 (SW-620 colon): 0.153 µM | TGI (SW-620 colon): 14.8 µM | GI50 (SF-268 CNS): 0.257 µM | TGI (SF-268 CNS): 23.9 µM

COc1ccc2c(c1)C(C)Cc1c(Cl)ncnc1N2C (stereo not given)
GI50 (OVCAR-3 ovarian): 0.268 µM | TGI (OVCAR-3 ovarian): 0.75 µM | GI50 (OVCAR-4 ovarian): 0.395 µM | TGI (OVCAR-4 ovarian): > 100 µM | GI50 (HS 578T breast): 0.533 µM | TGI (HS 578T breast): 38.1 µM | GI50 (M14 melanoma): 0.345 µM | TGI (M14 melanoma): 7.99 µM | GI50 (HOP-92 NSCLC): 1.25 µM | TGI (HOP-92 NSCLC): 7.5 µM | GI50 (MDA-MB-231 breast): 0.365 µM | TGI (MDA-MB-231 breast): 2.35 µM | GI50 (SK-MEL-28 melanoma): 0.368 µM | TGI (SK-MEL-28 melanoma): 46.1 µM | GI50 (SK-MEL-2 melanoma): 0.405 µM | TGI (SK-MEL-2 melanoma): 2.12 µM | GI50 (SW-620 colon): 0.377 µM | TGI (SW-620 colon): 17.8 µM | GI50 (SF-268 CNS): 0.359 µM | TGI (SF-268 CNS): 22.9 µM

CCCCc1c(OC)cc(O)c2c1C(=O)c1[nH]c(C(=O)O)c(O)c(=O)c1C2=O
TGI (OVCAR-3 ovarian): 8.45 µM | TGI (OVCAR-4 ovarian): > 100 µM | TGI (HS 578T breast): 8.14 µM | TGI (M14 melanoma): 34.3 µM | TGI (HOP-92 NSCLC): > 100 µM | TGI (MDA-MB-231 breast): 3.49 µM | TGI (SK-MEL-28 melanoma): > 100 µM | TGI (SK-MEL-2 melanoma): 4.3 µM | TGI (SW-620 colon): > 100 µM | TGI (SF-268 CNS): > 100 µM

O=C(OCc1ccc2cccc(O)c2n1)N1CCN(C(=O)c2cc3cc(F)ccc3[nH]2)CC1
GI50 (OVCAR-3 ovarian): 0.46 µM | TGI (OVCAR-3 ovarian): 1.77 µM | GI50 (OVCAR-4 ovarian): 1.35 µM | TGI (OVCAR-4 ovarian): 2.74 µM | GI50 (HS 578T breast): 1.42 µM | TGI (HS 578T breast): 5.72 µM | GI50 (M14 melanoma): 1.13 µM | TGI (M14 melanoma): 2.5 µM | GI50 (HOP-92 NSCLC): 0.383 µM | TGI (HOP-92 NSCLC): 1.94 µM | GI50 (MDA-MB-231 breast): 0.966 µM | TGI (MDA-MB-231 breast): 2.23 µM | GI50 (SK-MEL-28 melanoma): 1.68 µM | TGI (SK-MEL-28 melanoma): 3.05 µM | GI50 (SK-MEL-2 melanoma): 1.35 µM | TGI (SK-MEL-2 melanoma): 2.78 µM | GI50 (SW-620 colon): 0.42 µM | TGI (SW-620 colon): 1.91 µM | GI50 (SF-268 CNS): 1.45 µM | TGI (SF-268 CNS): 3.04 µM

C=C(F)C(=O)N1CCN(c2nc(OC[C@@H]3CCCN3C)nc3c2CCN(c2cccc4cccc(Cl)c24)C3)C[C@@H]1CC#N
GI50 (OVCAR-3 ovarian): 1.15 µM | TGI (OVCAR-3 ovarian): 3.28 µM | GI50 (OVCAR-4 ovarian): 0.994 µM | TGI (OVCAR-4 ovarian): 3.3 µM | GI50 (HS 578T breast): 1.76 µM | TGI (HS 578T breast): 4.4 µM | GI50 (M14 melanoma): 1.06 µM | TGI (M14 melanoma): 2.34 µM | GI50 (HOP-92 NSCLC): 0.437 µM | TGI (HOP-92 NSCLC): 1.85 µM | GI50 (MDA-MB-231 breast): 0.752 µM | TGI (MDA-MB-231 breast): 2.23 µM | GI50 (SK-MEL-28 melanoma): 1.32 µM | TGI (SK-MEL-28 melanoma): 2.72 µM | GI50 (SK-MEL-2 melanoma): 1.4 µM | TGI (SK-MEL-2 melanoma): 2.8 µM | GI50 (SW-620 colon): 0.992 µM | TGI (SW-620 colon): 2.52 µM | GI50 (SF-268 CNS): 1.37 µM | TGI (SF-268 CNS): 3.37 µM
